Measurements as given in US9358207B2, “Flashmelt oral dosage formulation” (OTSUKA PHARMACEUTICAL CO., LTD., priority 2000, dated 2016).

Assay: Hygroscopicity: water content of crystals after storage in dessicator
Type: physicochemical
Conditions: after 24 hours inside a dessicator at 60° C. and humidity of 100%
Protocol: For example, Aripiprazole Anhydride Crystals B of the present invention maintain a water content of 0.4% or less after 24 hours inside a dessicator set at a temperature of 60° C. and a humidity of 100%.
Well-known methods of measuring water content can be used as long as they are methods commonly used for measuring the water content of crystals. For example, a method such as the Karl Fischer method can be used.

O=C1CCc2ccc(OCCCCN3CCN(c4cccc(Cl)c4Cl)CC3)cc2N1 [Aripiprazole Anhydride Crystals B, aripiprazole]
water content: ≤ 0.4%
